13 compounds from US8673894B2 (Hoffmann-La Roche Inc., priority 2010, dated 2014) can be followed below.

Molecules are shown by their SMILES. Where a name gives a salt, the structure may show the parent alone.

Experiment [1] deals with T1, endogenous cellular BACE2 (Rattus norvegicus, UniProt Q6IE75).
T1 construct: endogenous cellular BACE2 in the Ins1e rat cell line; endogenous in cells; host or cells: INS-TMEM27 (INS1e-derived rat insulinoma cell line with doxycycline-inducible full-length human TMEM27)
T1 sequence (Q6IE75 63-514): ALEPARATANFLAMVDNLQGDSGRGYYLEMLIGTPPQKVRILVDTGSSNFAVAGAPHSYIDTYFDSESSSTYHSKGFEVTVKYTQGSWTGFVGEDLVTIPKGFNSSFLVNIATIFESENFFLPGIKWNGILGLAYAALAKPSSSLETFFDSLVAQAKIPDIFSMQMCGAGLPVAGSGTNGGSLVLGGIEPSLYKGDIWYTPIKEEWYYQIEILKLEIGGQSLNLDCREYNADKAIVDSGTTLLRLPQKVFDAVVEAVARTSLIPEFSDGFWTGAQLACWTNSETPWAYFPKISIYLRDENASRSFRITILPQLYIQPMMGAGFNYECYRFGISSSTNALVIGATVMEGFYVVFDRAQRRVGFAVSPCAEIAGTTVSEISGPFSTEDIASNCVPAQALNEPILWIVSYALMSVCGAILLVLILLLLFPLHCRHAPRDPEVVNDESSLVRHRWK
Kind of experiment: Assay for BACE inhibition by measuring cellular TMEM27 cleavage. It is filed as cell-based. The following applies: INS-TMEM27 (INS1e-derived) cells, shed human TMEM27 in supernatant by ELISA. The method, boiled down: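 INS1e rat cells with doxycycline-inducible human TMEM27 get inhibitor 2 h before doxycycline (500 ng/ml final), then 46 h further at 37° C. Shed TMEM27 in the supernatant is measured by sandwich ELISA, and the EC50 comes from a curve fit of the ELISA signal.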
(In general: ELISA stands for enzyme-linked immunosorbent assay.)

The test system of experiment [2] is Aβ40. Kind of experiment: Cellular Aβ-lowering assay. In kind it is cell-based. Conditions: HEK293 cells stably expressing human APP695, Aβ40 in supernatant by ELISA after 18-20 hrs; read-out: Cellular assay Abeta40 IC50. In short, it runs like this:
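HEK293 cells stably expressing human wild-type APP695 were treated with compound for 18-20 h at 37 °C in 0.8% v/v DMSO. Secreted Aβ40 in the supernatant was measured by sandwich ELISA (Aβ40 C-terminus-specific capture, HRP-4G8 detection, TMB read at 450 nm) and quantified against a pure Aβ peptide standard curve.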

As usually defined, the IC50 is the concentration needed to halve the response being measured. In the case of `C[C@]1(c2cc(NC(=O)c3ccc(OCC(F)F)cn3)ccc2F)N=C(N)COCC1(F)F` [Example 60, (R)-N-(3-(3-amino-6,6-difluoro-5-methyl-2,5,6,7-tetrahydro-1,4-oxazepin-5-yl)-4-fluorophenyl)-5-(2,2-difluoroethoxy)picolinamide formate], the figures for the IC50 in experiment [1] and in experiment [2] were 4160 nM and 26 nM, respectively.
On the same counts, the results for `Cc1c[nH]nc1C(=O)Nc1ccc(F)c([C@@]2(C)N=C(N)COCC2(F)F)c1` [Example 97, (R)-N-(3-(3-Amino-6,6-difluoro-5-methyl-2,5,6,7-tetrahydro-1,4-oxazepin-5-yl)-4-fluorophenyl)-4-methyl-1H-pyrazole-3-carboxamide] are 444 nM and 220 nM.
As to `C[C@@]1(c2cc(NC(=O)c3ccc(Cl)cn3)ccc2F)CCOCC(N)=N1` [Example 5, 5-Chloro-pyridine-2-carboxylic acid [3-((S)-3-amino-5-methyl-2,5,6,7-tetrahydro-[1,4]oxazepin-5-yl)-4-fluoro-phenyl]-amide formate], the figures for the IC50 in experiment [1] and in experiment [2] were 0.885 nM and 0.9 nM, respectively.
Turning to `C[C@@]1(c2cc(NC(=O)C3CC3(F)F)ccc2F)CCOCC(N)=N1` (stereo partly drawn) [Example 23, 2,2-Difluoro-cyclopropanecarboxylic acid [3-((S)-3-amino-5-methyl-2,5,6,7-tetrahydro-[1,4]oxazepin-5-yl)-4-fluoro-phenyl]-amide], the IC50 is 140 nM in experiment [1] and 1640 nM in experiment [2].
On the same counts, the results for `CCOCc1ccc(C(=O)Nc2ccc(F)c([C@@]3(C)N=C(N)COCC3(F)F)c2)nc1` [Example 57, (R)-N-(3-(3-amino-6,6-difluoro-5-methyl-2,5,6,7-tetrahydro-1,4-oxazepin-5-yl)-4-fluorophenyl)-5-(ethoxymethyl)picolinamide formate] are 280 nM and 14 nM.
Taken in the same sequence, the figures for `CC[C@]1(c2cc(NC(=O)c3nn(C)cc3Cl)ccc2F)N=C(N)COCC1(F)F` [Example 85, (R)-N-(3-(3-Amino-5-ethyl-6,6-difluoro-2,5,6,7-tetrahydro-1,4-oxazepin-5-yl)-4-fluorophenyl)-4-chloro-1-methyl-1H-pyrazole-3-carboxamide] were 29.2 nM and 280 nM.
Taken in the same sequence, the figures for `CCn1cc(Cl)c(C(=O)Nc2ccc(F)c([C@@]3(C)N=C(N)COCC3(F)F)c2)n1` [Example 95, (R)-N-(3-(3-Amino-6,6-difluoro-5-methyl-2,5,6,7-tetrahydro-1,4-oxazepin-5-yl)-4-fluorophenyl)-4-chloro-1-ethyl-1H-pyrazole-3-carboxamide] were 66.3 nM and 22 nM.
In the case of `CC[C@@]1(c2cc(NC(=O)c3ncc(Cl)cc3Cl)ccc2F)CCOCC(N)=N1` [Example 15, 3,5-Dichloro-pyridine-2-carboxylic acid [3-((S)-3-amino-5-ethyl-2,5,6,7-tetrahydro-[1,4]oxazepin-5-yl)-4-fluoro-phenyl]-amide], the IC50 is 38 nM in experiment [1] and 880 nM in experiment [2].
Turning to `C[C@]1(c2cc(NC(=O)c3ccn(C(F)F)n3)ccc2F)N=C(N)COCC1(F)F` [Example 44, (R)-N-(3-(3-amino-6,6-difluoro-5-methyl-2,5,6,7-tetrahydro-1,4-oxazepin-5-yl)-4-fluorophenyl)-1-(difluoromethyl)-1H-pyrazole-3-carboxamide formate], the IC50 in experiment [1] came to 1.2 nM; in experiment [2], 2.4 nM.
On the same counts, the results for `CC[C@]1(c2cc(NC(=O)c3ncoc3C)ccc2F)N=C(N)COCC1(F)F` [Example 87, (R)-N-(3-(3-amino-5-ethyl-6,6-difluoro-2,5,6,7-tetrahydro-1,4-oxazepin-5-yl)-4-fluorophenyl)-5-methyloxazole-4-carboxamide] are 134 nM and 1120 nM.
Taken in the same sequence, the figures for `CC1(C)C[C@@](C)(c2cc(NC(=O)c3ccc(OC(F)F)cn3)ccc2F)N=C(N)CO1` [Example 11, 5-Difluoromethoxy-pyridine-2-carboxylic acid [3-((S)-3-amino-5,7,7-trimethyl-2,5,6,7-tetrahydro-[1,4]oxazepin-5-yl)-4-fluoro-phenyl]-amide] were 2 nM and 2.1 nM.
On to `C[C@]1(c2cc(NC(=O)c3ncc(C#N)cc3Cl)ccc2F)N=C(N)COCC1(F)F` [Example 56, (R)-N-(3-(3-amino-6,6-difluoro-5-methyl-2,5,6,7-tetrahydro-1,4-oxazepin-5-yl)-4-fluorophenyl)-3-chloro-5-cyanopicolinamide formate], for which the IC50 was determined as 15.6 nM in experiment [1] and 1.5 nM in experiment [2].
Taken in the same sequence, the figures for `CC1(C)OCC[C@@](C)(c2cc(NC(=O)c3ccc(F)cn3)ccc2F)N=C1N` [Example 50, 5-Fluoro-pyridine-2-carboxylic acid [3-((S)-3-amino-2,2,5-trimethyl-2,5,6,7-tetrahydro-[1,4]oxazepin-5-yl)-4-fluoro-phenyl]-amide] were 71 nM and 160 nM.
